According to the NIST ThermoML archive (doi:10.1021/acs.jced.9b00311):
± gives the expanded uncertainty stated by the source.

Assays:
[1] = Liquid; for speed of sound: Frequency=3 MHz, Pulse-echo method; for mass density: Vibrating tube method
[2] = xn = mol fraction of the nth substance listed; conditions: Liquid, Vibrating tube method, x1 = 1

CCCCCCCCCCCC [dodecane]
[1]
Conditions	mass density, 303.15 K [kg/m3]	mass density, 313.15 K [kg/m3]	speed of sound, 303.15 K [m/s]	speed of sound, 313.15 K [m/s]
10000 kPa	748.5 ± 0.8	741.6 ± 0.8	1318.5 ± 1.8	1281.7 ± 1.8
20000 kPa	755.1 ± 0.9	748.5 ± 0.9	1372.4 ± 1.8	1337.9 ± 1.8
30000 kPa	761.3 ± 1	754.8 ± 0.9	1421.4 ± 1.8	1389.6 ± 1.8
40000 kPa	766.9 ± 1	760.8 ± 1	1468.5 ± 1.9	1436.8 ± 1.8
50000 kPa	772 ± 1	766.3 ± 1.1	1512.3 ± 1.9	1481.5 ± 1.9
60000 kPa	776.8 ± 1.1	771.5 ± 1.1	1553.7 ± 1.9	1524.2 ± 1.9
70000 kPa	781.4 ± 1.1	776.4 ± 1.1	1593.3 ± 2	1564.6 ± 1.9

O=C=O [carbon dioxide] + CCCCCCCCCCCC
mass density [kg/m3], [2]
Conditions	10000 kPa	20000 kPa	30000 kPa	40000 kPa	50000 kPa	60000 kPa	70000 kPa
303.15 K	770.5 ± 1.8	890.1 ± 0.5	949.2 ± 0.5	989.1 ± 0.5	1020 ± 0.5	1045.8 ± 0.5	1068 ± 0.5
313.15 K	628.9 ± 1.9	839.3 ± 1.1	909.2 ± 0.6	955.5 ± 0.6	990.5 ± 0.5	1019 ± 0.5	1043.5 ± 0.5

O=C=O [carbon dioxide]
mass density [kg/m3], [1]
Conditions	10000 kPa	20000 kPa	30000 kPa	40000 kPa	50000 kPa	60000 kPa	70000 kPa
303.15 K	770.5 ± 1.8	890.1 ± 0.5	949.2 ± 0.5	989.1 ± 0.5	1020 ± 0.5	1045.8 ± 0.5	1068 ± 0.5
313.15 K	628.9 ± 1.9	839.3 ± 1.1	909.2 ± 0.6	955.5 ± 0.6	990.5 ± 0.5	1019 ± 0.5	1043.5 ± 0.5
